Usually melting point stands for the temperature of the solid-liquid transition.

`CCC(=O)Nc1cc(-c2sc(CCSC)nc2-c2cccc(C)c2)ccn1` [Example 102-1, N-[4-[4-(3-methylphenyl)-2-[2-(methylthio)ethyl]-1,3-thiazol-5-yl]-2-pyridyl]propionamide] displayed a melting point of 85 to 86 °C.

Regarding `CCCc1nc(-c2cccc(Cl)c2)c(-c2ccnc(NC(C)=O)c2)s1` [Example Compound 30-3, N-[4-[4-(3-chlorophenyl)-2-propyl-1,3-thiazol-5-yl]-2-pyridyl]acetamide], the melting point lay within 144 to 145 °C.

In turn, `CCc1nc(-c2cccs2)c(-c2ccnc(N)c2)s1` [Example Compound 20-12, 4-[2-ethyl-4-(2-thienyl)-1,3-thiazol-5-yl]-2-pyridylamine] displayed a melting point of 159 to 160 °C.

As for `Nc1nc(-c2ccc(F)cc2)c(-c2ccnc(NC3CCCCC3)c2)s1` [Example Compound 36-1, [5-(2-cyclohexylamino-4-pyridyl)-4-(4-fluorophenyl)-1,3-thiazol-2-yl]amine], the melting point lay within 194 to 195 °C.

On to `Cc1cccc(-c2nc(-c3ccc(S(C)(=O)=O)cc3)sc2-c2ccnc(N3CCN(C)CC3)c2)c1` [Example Compound 37-5, 4-(3-methylphenyl)-5-[2-(4-methyl-1-piperazinyl)-4-pyridyl]-2-(4-methylsulfonylphenyl)-1,3-thiazole], for which the melting point was 153 to 154 °C.

Consider `CCc1nc(-c2ccc(Cl)cc2)c(-c2ccnc(N)c2)s1` [Example Compound 20-7, 4-[4-(4-chlorophenyl)-2-ethyl-1,3-thiazol-5-yl]-2-pyridylamine], for which the melting point was 136 to 137 °C.

For `Nc1nc(-c2ccc(F)cc2)c(-c2ccnc(F)c2)s1` [Example Compound 7-3, [4-(4-fluorophenyl)-5-(2-fluoro-4-pyridyl)-1,3-thiazol-2-yl]amine], the melting point fell in the range of 243 to 245 °C.

Compound `Cc1cccc(-c2nc(NC(=O)NCCCl)sc2-c2ccnc(C)c2)c1` returned a melting point of 149 to 151 °C.

As for `Cc1cc(C)cc(-c2nc(NC(=O)c3ccc(Cl)nc3)sc2-c2ccnc(C)c2)c1` [Example Compound 44-3, 6-chloro-N-[4-(3,5-dimethylphenyl)-5-(2-methyl-4-pyridyl)-1,3-thiazol-2-yl]nicotinamide], the melting point was in the range of 271 to 273 °C.

Regarding `Cc1cccc(-c2nc(NC(=O)Nc3ccccc3)sc2-c2ccnc(C)c2)c1` [Example Compound 53-4, N-[4-(3-methylphenyl)-5-(2-methyl-4-pyridyl)-1,3-thiazol-2-yl]-N′-phenylurea], the melting point was 168 to 169 °C.

The compound `CC(F)(F)c1nc(-c2cccc(Cl)c2)c(-c2ccnc(N)c2)s1` gave a melting point of 131 to 132 °C.

Turning to `Cc1cc(-c2sc(-c3ccc(S(C)(=O)=O)cc3)nc2-c2ccc(F)cc2)ccn1` [Example Compound 58-5, 4-(4-fluorophenyl)-5-(2-methyl-4-pyridyl)-2-(4-methylsulfonylphenyl)-1,3-thiazole], the melting point lay within 190 to 192 °C.

In the case of `Cc1cc(C)cc(-c2nc(N)sc2-c2ccnc(C)c2)c1` [Example Compound 7-5, [4-(3,5-dimethylphenyl)-5-(2-methyl-4-pyridyl)-1,3-thiazol-2-yl]amine], the melting point is 219 to 220 °C.

In the case of `Cc1cc(C)cc(-c2nc(-c3ccc(S(C)(=O)=O)cc3)sc2-c2ccnc(C)c2)c1` [Example Compound 58-1, 4-(3,5-dimethylphenyl)-5-(2-methyl-4-pyridyl)-2-(4-methylsulfonylphenyl)-1,3-thiazole], the melting point lay within 196 to 197 °C.

In turn, `Cc1cccc(-c2nc(N)sc2-c2ccnc(N3CCOCC3)c2)c1` [Example Compound 34-1, [4-(3-methylphenyl)-5-(2-morpholino-4-pyridyl)-1,3-thiazol-2-yl]amine] had a melting point of 188 to 189 °C.

For `Cc1cccc(-c2nc(N)sc2-c2ccnc(NC3CCCC3)c2)c1` [Example Compound 34-3, [5-(2-cyclopentylamino-4-pyridyl)-4-(3-methylphenyl)-1,3-thiazol-2-yl]amine], the melting point lay in the range of 169 to 170 °C.

`Cc1cccc(-c2nc(N3CCN(C)CC3)sc2-c2ccnc(C)c2)c1` [Example Compound 14-13, 4-(3-methylphenyl)-2-(4-methylpiperazin-1-yl)-5-(2-methyl-4-pyridyl)-1,3-thiazole] yielded a melting point of 115 to 116 °C.

Take `Cc1cccc(-c2nc(-c3ccc(S(C)(=O)=O)cc3)sc2-c2cc[n+]([O-])c(C)c2)c1` [Example Compound 68-1, 4-[4-(3-methylphenyl)-2-(4-methylsulfonylphenyl)-1,3-thiazol-5-yl]-2-methylpyridine N-oxide]: the melting point lay in the range of 197 to 198 °C.

Regarding `CCOC(=O)Cc1nc(-c2cccc(Cl)c2)c(-c2ccnc(NC(C)=O)c2)s1` [Example 103-2, ethyl [5-(2-acetylamino-4-pyridyl)-4-(3-chlorophenyl)-1,3-thiazol-2-yl]acetate], the melting point lay within 99 to 100 °C.

On to `CCC(=O)Nc1cc(-c2sc(CC)nc2-c2ccc(F)cc2)ccn1` [Example 84-2, N-[4-[2-ethyl-4-(4-fluorophenyl)-1,3-thiazol-5-yl]-2-pyridyl]propionamide], for which the melting point was in the range of 156 to 157 °C.

On to `CCc1nc(-c2cccc(Cl)c2)c(-c2ccnc(NC(=O)CC3CCCC3)c2)s1` [Example 90-1, N-[4-[4-(3-chlorophenyl)-2-ethyl-1,3-thiazol-5-yl]-2-pyridyl]cyclopentylacetamide], for which the melting point is 121 to 122 °C.

On to `CCc1nc(-c2cccc(C)c2)c(-c2ccnc(NC3CCCCC3)c2)s1` [Example Compound 36-4, N-cyclohexyl-4-[2-ethyl-4-(3-methylphenyl)-1,3-thiazol-5-yl]-2-pyridylamine], for which the melting point fell in the range of 110 to 112 °C.

On to `CCCCCC(=O)Nc1cc(-c2sc(CC)nc2-c2cccc(C)c2)ccn1` [Example 87-2, N-[4-[2-ethyl-4-(3-methylphenyl)-1,3-thiazol-5-yl]-2-pyridyl]hexanamide], for which the melting point fell in the range of 84 to 85 °C.

Consider `CCc1nc(-c2ccc(F)c(C)c2)c(-c2ccnc(NC(C)=O)c2)s1` [Example 82-4, N-[4-[2-ethyl-4-(4-fluoro-3-methylphenyl)-1,3-thiazol-5-yl]-2-pyridyl]acetamide], for which the melting point lay in the range of 142 to 143 °C.

Compound `Cc1cc(C)cc(-c2nc(NC(=O)c3cccnc3)sc2-c2cc(C)nc(C)c2)c1` [Example Compound 42-2, N-[4-(3,5-dimethylphenyl)-5-(2,6-dimethyl-4-pyridyl)-1,3-thiazol-2-yl]nicotinamide] gave a melting point of 267 to 268 °C.

On to `Cc1cccc(-c2nc(NC(=O)c3ccc(Cl)nc3)sc2-c2ccnc(NC3CCCCC3)c2)c1` [Example Compound 44-1, 6-chloro-N-[5-(2-cyclohexylamino-4-pyridyl)-4-(3-methylphenyl)-1,3-thiazol-2-yl]nicotinamide], for which the melting point fell in the range of 255 to 256 °C.

Take `Cc1cccc(-c2nc(CC(F)(F)F)sc2-c2ccnc(N)c2)c1` [Example Compound 18-3, 4-[4-(3-methylphenyl)-2-(2,2,2-trifluoroethyl)-1,3-thiazol-5-yl]-2-pyridylamine]: the melting point was in the range of 131 to 132 °C.

Take `CCC(=O)Nc1cc(-c2sc(CC)nc2-c2ccccc2)ccn1` [Example 84-1, N-[4-(2-ethyl-4-phenyl-1,3-thiazol-5-yl)-2-pyridyl]propionamide]: the melting point lay in the range of 139 to 140 °C.

The compound `CCC(=O)Nc1cc(-c2sc(C(C)OC(=O)c3ccccc3)nc2-c2cccc(C)c2)ccn1` (stereo not drawn) [Example 102-5, 1-[4-(3-methylphenyl)-5-(2-propionylamino-4-pyridyl)-1,3-thiazol-2-yl]ethyl benzoate] displayed a melting point of 102 to 103 °C.

`CC(=O)Nc1cc(-c2scnc2-c2cccc(C)c2)ccn1` [Example 82-11, N-[4-[4-(3-methylphenyl)-1,3-thiazol-5-yl]-2-pyridyl]acetamide] yielded a melting point of 149 to 150 °C.

Compound `COc1ccc(-c2nc(C)sc2-c2ccnc(N)c2)cc1` [Example Compound 23-3, 4-[4-(4-methoxyphenyl)-2-methyl-1,3-thiazol-5-yl]-2-pyridylamine] registered a melting point of 140 to 141 °C.

As for `CCC(=O)Nc1cc(-c2sc(CC)nc2-c2cccs2)ccn1` [Example Compound 30-10, N-[4-[2-ethyl-4-(2-thienyl)-1,3-thiazol-5-yl]2-pyridyl]propionamide], the melting point lay in the range of 187 to 188 °C.

`CCOC(=O)Cc1nc(-c2cccc(Cl)c2)c(-c2ccnc(N)c2)s1` [Example Compound 21-2, Ethyl [5-(2-amino-4-pyridyl)-4-(3-chlorophenyl)-1,3-thiazol-2-yl]acetate] displayed a melting point of 154 to 155 °C.

Turning to `Cc1cccc(N2C=C(c3cc(C)nc(C)c3)SC2N)c1` (stereo not drawn) [Example Compound 7-6, [5-(2,6-dimethyl-4-pyridyl)-3-(3-methylphenyl)-1,3-thiazol-2-yl]amine], the melting point was 214 to 216 °C.

For `Cc1cccc(-c2nc(N(C)C(=O)c3cccnc3)sc2-c2ccnc(NC3CCCCC3)c2)c1` [Example Compound 42-8, N-[5-(2-cyclohexylamino-4-pyridyl)-4-(3-methylphenyl)-1,3-thiazol-2-yl]-N-methylnicotinamide], the melting point lay within 147 to 148 °C.

The compound `CCC(=O)Nc1cc(-c2sc(CC)nc2-c2ccc(Cl)cc2)ccn1` [Example 84-6, N-[4-[4-(4-chlorophenyl)-2-ethyl-1,3-thiazol-5-yl]-2-pyridyl]propionamide] returned a melting point of 152 to 153 °C.

On to `CCC(=O)Nc1cc(-c2sc(C(C)O)nc2-c2cccc(Cl)c2)ccn1` (stereo not drawn) [Example 105, N-[4-[4-(3-chlorophenyl)-2-(1-hydroxyethyl)-1,3-thiazol-5-yl]-2-pyridyl]propionamide], for which the melting point is 131 to 132 °C.

`CCCc1cccc(-c2nc(CC)sc2-c2ccnc(N)c2)c1` [Example Compound 20-11, 4-[2-ethyl-4-(3-propylphenyl)-1,3-thiazol-5-yl]-2-pyridylamine] came in with a melting point of 72 to 74 °C.

Consider `O=C(Nc1nc(-c2ccc(F)cc2)c(-c2ccnc(NC3CCCCC3)c2)s1)c1cccnc1` [Example Compound 42-5, N-[5-(2-cyclohexylamino-4-pyridyl)-4-(4-fluorophenyl)-1,3-thiazol-2-yl]nicotinamide], for which the melting point was 136 to 138 °C.

The values above are taken from patent US7495018B2, “Substituted 1,3-thiazole compounds, their production and use” (Takeda Pharmaceutical Company Limited, priority 2000, dated 2009).
